pIC50: −log10 of the molar value.
Columns and labels:
[1] = test system: KMM1 high-risk MM cell line; assay: WST-1 cell proliferation inhibition (Example 8), KMM1; type: cell-based; details: Homo sapiens, KMM-1, WST-1, 48 hours, read-out: IC50, cell proliferation inhibitory activity, KMM1
Experimental: (§1) Similar to Example 7, high-risk MM cell lines were treated with drugs, TC11 and PEG5(E)-TC11 at arbitrary concentrations. […] Specifically, each high-risk MM cell line was prepared at 5×10^5 cells/ml, and then seeded at 50 μl per well (2.5×10^4 cells). Drugs such as TC11, and PEG5(E)-TC11 were added to wells at arbitrary concentrations. WST-1 reagent was added at 48 hours after addition of drugs. After 1 hour of reaction at 37° C. in a CO2 incubator, absorbance was measured at a wavelength of 450 nm using a microplate reader. Cell viability was found from an absorbance ratio using absorbance at 0 μM designated as 100%. IC50 was calculated from a semi-logarithmic chart using Microsoft (registered trademark) Excel.

[2] = test system: KMS11 high-risk MM cell line; assay: WST-1 cell proliferation inhibition (Example 8), KMS11; type: cell-based; details: Homo sapiens, KMS-11, WST-1, 48 hours, read-out: IC50, cell proliferation inhibitory activity, KMS11
Experimental: as §1

[3] = Mouse blood kinetics upon single intraperitoneal administration; type: in vivo; details: male, ICR, plasma, ip, mice, single intraperitoneal TC11 60 mg/kg BW
Experimental: First, PEG11(E)-TC11(A) and PEG11(O)-TC11(B) were examined for stability in mouse blood. To 5-week-old male ICR mice (CLEA Japan, Tokyo, Japan), PEG11(E)-TC11 and PEG11(O)-TC11 were administered intraperitoneally at 59.1 mg/kg BW and 54.6 mg/kg BW, respectively, in such a manner that each molar concentration was equivalent to that of 20 mg/kg BW of TC11. At 0, 0.5, 1, 1.5, 4, 8, 12, and 24 hours later, a tail vein was punctured with a 26G needle for bleeding, and then about 100 μL of blood was collected using a heparinized hematocrit capillary tube (Terumo, Tokyo, Japan). After blood collection, blood was transferred into a 0.5-mL tube, and then subjected to centrifugation at 4° C. and 3,400 G for 15 minutes. Subsequently, the supernatant was collected, and then cryopreserved at −80° C. A quality control serum, Consera (registered trademark) (Nissui pharmaceutical, Tokyo, Japan) was dissolved in 3 mL of distilled water (dH2O) per bottle. After left to stand for 30 minutes, bottles were turned upside-down (mixing by inversion) and then used. Consera (190 μL) was mixed with the collected blood plasma and 10 μL of urine, thereby preparing samples. Moreover, PEG11(E)-TC11 and HOEtO-TC11 were each diluted with dH2O in such a manner that the concentrations were 0, 2, 4, 6, 8, and 10 μM, and then 10 μL of the solution at each concentration and 190 μL of Consera were mixed, thereby preparing a calibration curve sample. […]
HPLC analysis was conducted using Inertsil (registered trademark) ODS-3 […]×Φ4.6 mm as a stationary phase, CH3CN:dH2O=50:50 as a mobile phase, a flow rate of 0.70 mL/min, a UV detection wavelength of 267 nm, and an excitation wavelength of 380 nm, a fluorescence wavelength of 530 nm, and an injection amount of 10 μL at a column temperature of 25° C.
PEG11(E)-TC11 was examined. […] Note that as described in Example 7, since PEG11(E)-TC11 is quickly hydrolyzed by esterase in blood and then converted to HOEtO-TC11, the blood HOEtO-TC11 level was measured.

[4] = test system: KMS11 xenograft; assay: Antitumor effect on KMS11 cancer-bearing mice (Example 17); type: in vivo, ICR/SCID mice; details: Day 9, i.p., equimolar to TC11 60 mg/kgBW
Experimental: KMS11 was administered to 5-week-old ICR/SCID mice at 2×10^7 cells/mouse via hypodermic injection. Tumor volumes were measured over time, and the day on which the tumor volume exceeded 50 mm^3 was designated as Day 1 and observation was performed for 9 days. […] On the day of administration, these solutions were diluted 10-fold with physiological saline while stirring with Vortex, and then intraperitoneally administered. Tumor volume was calculated by the following formula.
Tumor volume (mm^3)=major axis×minor axis×minor axis×π/6=major axis×minor axis×minor axis×0.5236

Which results are given for CC(C)c1cccc(C(C)C)c1N1C(=O)c2ccc(N)cc2C1=O [TC11, 2-(2,6-di-isopropylphenyl)-5-amino-1H-isoindole-1,3-dione, reference compound]?
pIC50 [1]: 5.24; pIC50 [2]: 5.49; Cmax ([3]; read-out: Cmax, highest blood level): 2.6 µM; half-life ([3]; read-out: t1/2, serum half-life (converted)): 1.4 h; Tmax ([3]; read-out: tmax, time at which the blood level reached the highest level): 1.5 h; KMS-11 tumor growth compared to control mice [4]: tumor growth was suppressed

From patent US20190315775A1, “MODIFIED […] AND PHARMACEUTICAL COMPOSITION HAVING SAME AS ACTIVE INGREDIENT” (KEIO UNIVERSITY, priority 2016, published 2019)
